Results reported in US10138238B2, “Pesticidally active polycyclic derivatives with sulfur containing substituents” (Syngenta Participations AG, priority 2015, dated 2018).

Tests used:
Assay type in all cases: in vivo
[1] = test system: Thrips tabaci (Onion Thrips); test: Example B10: Thrips tabaci feeding/contact activity; details: 144 h, application rate of 200 ppm, 6 days after infestation
Method: (§1) Sunflower leaf discs were placed on agar in 24-well microtiter plates and sprayed with aqueous test solutions prepared from 10'000 ppm DMSO stock solutions. After drying the leaf discs were infested with a thrips population of mixed ages. The samples were assessed for mortality 6 days after infestation.

[2] = test system: Spodoptera littoralis (Egyptian Cotton Leaf Worm); test: Example B7: Spodoptera littoralis, cotton leaf discs, L1 larvae; details: foliar, 72 h, application rate of 200 ppm, 3 days after infestation
Method: (§2) Cotton leaf discs were placed onto agar in 24-well microtiter plates and sprayed with aqueous test solutions prepared from 10'000 ppm DMSO stock solutions. After drying the leaf discs were infested with five L1 larvae. The samples were assessed for mortality, anti-feeding effect, and growth inhibition in comparison to untreated samples 3 days after infestation. Control of Spodoptera littoralis by a test sample is given when at least one of the categories mortality, anti-feedant effect, and growth inhibition is higher than the untreated sample.

[3] = test system: Spodoptera littoralis (Egyptian Cotton Leaf Worm); test: Example B13: Breakpoint (BP80) against Spodoptera littoralis; details: lowest concentration which gives 80% larval mortality; larval feeding/contact
Method: as §2
(§3) Insecticidal action against Diabrotica balteata (Corn root worm), Plutella xylostella (Diamond black moth), and Spodoptera littoralis (Egyptian cotton leaf worm). The tests were carried out as described in biological examples B2, B6 and B7, respectively, with the larval feeding/contact activity being reported as Breakpoint (BP80) values in parts per million (i.e. the lowest concentration which gives 80% larval mortality).

[4] = test system: Diabrotica balteata (Corn Root Worm); test: Example B13: Breakpoint (BP80) against Diabrotica balteata; details: lowest concentration which gives 80% larval mortality; larval feeding/contact
Method: (§4) Maize sprouts placed onto an agar layer in 24-well microtiter plates were treated with aqueous test solutions prepared from 10'000 ppm DMSO stock solutions by spraying. After drying, the plates were infested with L2 larvae (6 to 10 per well). The samples were assessed for mortality and growth inhibition in comparison to untreated samples 4 days after infestation. The following compounds gave an effect of at least 80% in at least one of the two categories (mortality or growth inhibition) at an application rate of 200 ppm: P1, P2, P3, P4, P5, P6, P7, P8, P9, P10, P11, P12, P13, P14, and P15.
as §3

[5] = test system: Plutella xylostella (Diamond black moth); test: Example B13: Breakpoint (BP80) against Plutella xylostella; details: lowest concentration which gives 80% larval mortality; larval feeding/contact
Method: (§5) 24-well microtiter plates with artificial diet were treated with aqueous test solutions prepared from 10'000 ppm DMSO stock solutions by pipetting. After drying, the plates were infested with L2 larvae (10 to 15 per well). The samples were assessed for mortality and growth inhibition in comparison to untreated samples 5 days after infestation. The following compounds gave an effect of at least 80% in at least one of the two categories (mortality or growth inhibition) at an application rate of 200 ppm: P1, P2, P3, P4, P6, P8, P9, P10, P11, P12, P13, P14 and P15.
as §3

[6] = test system: Diabrotica balteata (Corn Root Worm); test: Example B2: Diabrotica balteata, maize sprouts, L2 larvae; details: 96 h, application rate of 200 ppm, 4 days after infestation, read-out: effect in at least one of the two categories (mortality or growth inhibition)
Method: as §4

[7] = test system: Plutella xylostella (Diamond Back Moth); test: Example B6: Plutella xylostella, artificial diet, L2 larvae; details: 120 h, application rate of 200 ppm, 5 days after infestation, read-out: effect in at least one of the two categories (mortality or growth inhibition)
Method: as §5

[8] = test system: Euschistus heros (Neotropical Brown Stink Bug); test: Example B3: Euschistus heros, soybean leaves, N2 nymphs; details: 120 h, application rate of 200 ppm, 5 days after infestation, read-out: effect in at least one of the two categories (mortality or growth inhibition)
Method: Soybean leaves on agar in 24-well microtiter plates were sprayed with aqueous test solutions prepared from 10'000 ppm DMSO stock solutions. After drying the leaves were infested with N2 nymphs. The samples were assessed for mortality and growth inhibition in comparison to untreated samples 5 days after infestation. The following compounds gave an effect of at least 80% in at least one of the two categories (mortality or growth inhibition) at an application rate of 200 ppm: • P1, P3, P8, P9, P10, P13, P14, and P15

[9] = test system: Myzus persicae (Green Peach Aphid); test: Example B5: Myzus persicae systemic activity; details: 144 h, test rate of 24 ppm, pea seedling roots, 6 days
Method: Roots of pea seedlings infested with an aphid population of mixed ages were placed directly into aqueous test solutions prepared from 10'000 DMSO stock solutions. The samples were assessed for mortality 6 days after placing seedlings into test solutions.

[10] = test system: Myzus persicae (Green Peach Aphid); test: Example B4: Myzus persicae feeding/contact activity; details: 144 h, application rate of 200 ppm, 6 days after infestation
Method: Sunflower leaf discs were placed onto agar in a 24-well microtiter plate and sprayed with aqueous test solutions prepared from 10'000 ppm DMSO stock solutions. After drying, the leaf discs were infested with an aphid population of mixed ages. The samples were assessed for mortality 6 days after infestation.

[11] = test system: Spodoptera littoralis (Egyptian Cotton Leaf Worm); test: Example B8: Spodoptera littoralis systemic activity; details: 144 h, test rate of 12.5 ppm, lettuce, 6 days after infestation, read-out: effect in at least one of the three categories (mortality, anti-feeding, or growth inhibition)
Excerpt: Test compounds were applied by pipette from 10'000 ppm DMSO stock solutions into 24-well plates and mixed with agar. Lettuce seeds were placed onto the agar and the multi well plate was closed by another plate which contained also agar. After 7 days the compound was absorbed by the roots and the lettuce grew into the lid plate. The lettuce leaves were then cut off into the lid plate. Spodoptera eggs were pipetted through a plastic stencil onto a humid gel blotting paper and the lid plate was closed with it. The samples were assessed for mortality, anti-feedant effect and growth inhibition in comparison to untreated samples 6 days after infestation. The following compounds gave an effect of at least 80% in at least one of the three categories (mortality, anti-feeding, or growth inhibition) at a test rate of 12.5 ppm: • P10, P13, P14 and P15.

[12] = test system: Tetranychus urticae (Two-Spotted Spider Mite); test: Example B9: Tetranychus urticae feeding/contact activity; details: 192 h
Method: as §1, with “Bean” for “Sunflower”, “discs” for “discs were placed”, “were” for “and”, “mite” for “thrips”, “on mixed population (mobile stages) 8” for “6”

## CCS(=O)(=O)c1ccc(-n2ccc(C(F)(F)F)n2)nc1-c1nc2cc(C(F)(F)F)ncc2n1C [Compound P3, 2-[3-ethylsulfonyl-6-[3-(trifluoromethyl)pyrazol-1-yl]-2-pyridyl]-3-methyl-6-(trifluoromethyl)imidazo[4,5-c]pyridine]
[1]
  mortality at 200 ppm: ≥ 80%
[2]
  percent control (mortality, anti-feedant effect or growth inhibition) at 200 ppm: ≥ 80%
[3]
  BP80 Values Spodoptera littoralis: 0.8 ppm
[4]
  BP80 Values Diabrotica balteata: 0.8 ppm
[5]
  BP80 Values Plutella xylostella: 12 ppm
[6]
  percent effect (mortality or growth inhibition) at 200 ppm: ≥ 80%
[7]
  percent effect (mortality or growth inhibition) at 200 ppm: ≥ 80%
[8]
  percent effect (mortality or growth inhibition) at 200 ppm: ≥ 80%

## CCS(=O)(=O)c1ccc(-c2ncccn2)nc1-c1nc2cc(SC(F)(F)F)ncc2n1C [Compound P10, 2-(3-ethylsulfonyl-6-pyrimidin-2-yl-2-pyridyl)-3-methyl-6-(trifluoromethylsulfanyl)imidazo[4,5-c]pyridine]
[1]
  mortality at 200 ppm: ≥ 80%
[9]
  mortality at 24 ppm: ≥ 80%
[10]
  mortality at 200 ppm: ≥ 80%
[2]
  percent control (mortality, anti-feedant effect or growth inhibition) at 200 ppm: ≥ 80%
[11]
  percent effect (mortality, anti-feeding or growth inhibition) at 12.5 ppm: ≥ 80%
[6]
  percent effect (mortality or growth inhibition) at 200 ppm: ≥ 80%
[7]
  percent effect (mortality or growth inhibition) at 200 ppm: ≥ 80%
[8]
  percent effect (mortality or growth inhibition) at 200 ppm: ≥ 80%
[12]
  mortality at 200 ppm: ≥ 80%
